Laboratory results published in patent US20030053952A1, “Therapeutic tool for vascular diseases” (Yasumi UCHIDA, priority 2001, published 2003).
“Also recorded” adds a separate entry of the source.

What was measured:
[1] = test system: vascular progenitor cells; assay: Implantation of dye-eluting stents into canine coronary artery (percentage stenosis, angioscopy, progenitor cell count); format: in vivo, beagle dogs; conditions: for Number of cells (250 × 250 μm^2), Adventitia / Number of cells (250 × 250 μm^2), Intima / Number of cells (250 × 250 μm^2), Media: dye-eluting stent, stented coronary segment, one month after implantation
Method: Beagle dogs of either sex was anesthetized with pentobarbital sodium (25 mg/kg, i.v.) and trachea was intubated for artificial respiration with air. The right side of the neck was incised longitudinally to expose right common carotid artery. An 8F sheath was introduced into the artery through which an 8F guiding catheter was introduced into the left coronary artery. After coronary angiography, a balloon catheter clinically used for PTCA was introduced to dilate anterior descending artery. Then, a balloon catheter with a dye-eluting stent on it was introduced into the dilated segment of left anterior descending artery and it was inflated at 9 atms to implant the stent. After recovery from anesthesia, the dogs were cared according the guideline of Jikei University School of Medicine. One month later, the dogs were anesthetized again and coronary angiography and angioscopy (Uchida Y: Coronary Angioscopy, Futura Publishing Co, NY, 2000) were performed to examine the changes in the stented coronary segment. […] Thereafter, the dogs were sacrificed with intracoronary pentobarbital and the heart was removed. The heart was fixed with 10% hormaldehyde solution for microscopic examination.
The coronary angiograms were used for calibration of the percentage stenosis, namely (diameter before stent implantation-minimum luminal diameter/diameter before stent implantation)×100 of the narrowest portion (minimum luminal diameter) in the stent and was compared. Student's t test was used for statistical analysis and when P<0.05, the value was considered significant.
The stented coronary segment was removed and cut into slice in 5 μm in thickness. The slices were stained with beta-actin antibody and the number of vascular progenitor cells per unit area was counted and was compared between the dye and control groups.

[2] = test system: vascular progenitor cells; assay: Grafting of dye-eluting artificial grafts to canine common carotid artery (percentage stenosis, progenitor cell count); format: in vivo, beagle dogs; conditions: dye-eluting artificial graft, 3 months after grafting
Excerpt: In anesthetized beagle dogs, the bilateral sides of the neck were incised to expose both right and left common carotid arteries. An 8 F sheath was introduced into the right femoral artery through which a 8 F catheter was introduced into the aortic arch for angiography of the carotid arteries. A dye-eluting artificial graft was sutured to the common carotid arteries in side to end fashion to make a shunt between the right and left common carotid arteries. Then, a segment of right carotid artery proximal to and that of left distal to anastomoses were ligatured. Thus, the blood drained from the left to the right common carotid artery. Similarly in other group, grafts coated with bionate or Sanpren without dye were sutured to the arteries as control group. The dogs were cared for 3 months according to the guideline and angiography was repeated. Percentage stenosis of the sutured portion was compared between the dye and control groups. After cardiac arrest as mentioned above, the grafts and arteries were removed and were used for microscopic examinations.

[3] = test system: vascular progenitor cells; assay: Local delivery of dyes by porous balloon into balloon-injured coronary artery; count of migrated vascular progenitor cells; format: in vivo, beagle dogs; conditions: dogs
Method: Adult beagle dogs of either sexes weighing from 7 to 12 kg were anesthetized with pentobarbital sodium (25-30 mg/kg, i.v.) and the trachea was intubated for artificial respiration with air. The right side of the neck was longitudinally incised to expose the right common carotid artery and an 8 F sheath was introduced, through which an 8F guiding catheter was introduced into the left coronary ostium for angiography. After angiography, a balloon catheter (2.5 mm×20 mm) was introduced through the guiding catheter into the middle to distal segment of either the anterior descending or circumflex artery. Then, the balloon was inflated at 9 atms to
dilate the segment to induced disruption of the endothelium and internal elastic lamina. The balloon catheter was replaced by a porous balloon catheter (3 mm×20 mm) with multiple pores in the balloon (Clinical Supply Co, Gifu, Japan) for local delivery of dyes. Thereafter, 0.2 ml of 5% Evans blue saline solution was injected through the porous balloon into the dilated segment at 3 atms in 6 dogs and 0.5 ml of 5% Ethidium bromide saline solution
was injected similarly in 5 dogs. […] The dilated coronary segment and its surrounding tissues were removed and sliced, vascular progenitor cells were stained with beta-smooth muscle actin antibody (DAKO EPOS, Glostrup, Denmark) and the number of vascular progenitor cells/250×250 μm^2 was counted.

[4] = Preliminary in vitro elution of dye from double-layer coated stent immersed in water; format: physicochemical
Method: a) A soft polycarbonate urethane with risin bionate (Bionate 80A, Polimertech, USA) was used. Evans blue powder was dissolved in the bionate to make 20% Evans blue solution. A commercially available coronary stent (NIR stent, 3 mm×12 mm or Palmatz-Schatz stent, 3 mm×12 mm) was immersed into the solution for 10 min to form slowly eluting inner layer. Then, the stent was dried at room temperature. Evans blue powder was dissolved in distilled water to make 20% solution. The same stent was immersed into the solution for 10 min to make rapidly eluting outer layer. The stent was dried at room temperature. Then, the stent was sterilized with ethylene oxide gas. In the preliminary experiment in vitro, Evans blue began to elute from the outer layer immediately after and ceased to elute within 60 min after immersion into water.

Time at which elution from the outer (rapidly eluting) layer ceased ([4]; stent coated from 20% aqueous dye solution, after immersion into water) | Time at which elution from the inner (slowly eluting) layer began ([4]; stent coated from 20% dye in Bionate 80A, after immersion into water) | Duration of elution from the inner (slowly eluting) layer ([4]; stent coated from 20% dye in Bionate 80A, immersion into water) | Structure (SMILES) | Number of cells (250 × 250 μm^2), Adventitia [1] | Number of cells (250 × 250 μm^2), Intima [1] | Number of cells (250 × 250 μm^2), Media [1] | Number of cells (250 × 250 μm^2), vascular progenitor cells at the anastomosed portion of the common carotid artery [2] | Percentage stenosis of the stented coronary segments ([1]; angiography, 4 weeks after implantation of dye-coated stents, vs stents without dye) | Angioscopic appearance of stenosis of the stented coronary segment ([1]; angioscopy, 4 weeks after stent implantation) | Migration of circulating vascular progenitor cells into the injured coronary wall [3]
– | – | – | CC[n+]1c(-c2ccccc2)c2cc(N)ccc2c2ccc(N)cc21 [Ethidium bromide] | 21.3 ± 9.9 /250 × 250 μm^2 | 8.3 ± 3.7 /250 × 250 μm^2 | 9.6 ± 5.0 /250 × 250 μm^2 | 11.1 ± 3.1 /250 × 250 μm^2 | – | – | –
≤ 60 min | 60 min | up to one month | Cc1cc(-c2ccc(/N=N/c3ccc4c(S(=O)(=O)O)cc(S(=O)(=O)O)c(N)c4c3O)c(C)c2)ccc1/N=N/c1ccc2c(S(=O)(=O)O)cc(S(=O)(=O)O)c(N)c2c1O [Evans blue] | 17.0 ± 7.1 /250 × 250 μm^2 | 7.1 ± 3.2 /250 × 250 μm^2 | 8.0 ± 4.0 /250 × 250 μm^2 | 13.4 ± 4.0 /250 × 250 μm^2 | significantly smaller | stenosis was mild | no migration of the cells was observed; also recorded: inhibit migration
